Experimental data reported in patent publication US9796671B2, “Aurora kinase inhibitors” (REGENTS OF THE UNIVERSITY OF MINNESOTA, priority 2012, dated 2017).

Key:
Aurora B = Aurora B (Homo sapiens, UniProt Q96GD4); experiment: Aurora B in vitro kinase assay (histone H3 Ser10 phosphorylation, Western blot); type: biochemical
Protocol: Proteins are resolved by SDS-PAGE and transferred onto polyvinylidene difluoride membranes (Millipore, Mass.), which are blocked with nonfat milk and hybridized with specific primary antibodies. The protein bands are visualized using an enhanced chemiluminescence reagent (GE Healthcare, Pittsburgh, Pa.) after hybridization with a horseradish peroxidase-conjugated secondary antibody.
Reactions are carried out in 1× kinase buffer (25 mM Tris-HCl pH 7.5, 5 mM beta-glycerophosphate, 2 mM dithiothreitol (DTT), 0.1 mM Na3VO4, 10 mM MgCl2 and 5 mM MnCl2) containing 100 μM ATP at 30° C. for 30 minutes. Reactions are stopped and proteins detected by Western blotting.
An in vitro kinase assay was used to determine whether Compound 1 could inhibit Aurora B kinase activity using recombinant Aurora B protein and various concentrations of Compound 1. […] The effect of Compound 1 on Aurora A kinase activity using an in vitro kinase assay was also examined.

HCT116 p53−/− cells = experiment: Soft agar assay, p53-deficient colon cancer cells; type: cell-based; conditions: Homo sapiens, read-out: inhibition of growth in soft agar
Protocol: (§1) Tumor cells are suspended in basal medium Eagle (BME) medium and added to 0.6% agar, with different concentrations of Compound 1 in a base layer and a top layer of 0.3% agar. The cultures are maintained at 37° C. in a 5% CO2 incubator for 1 to 2 weeks and then colonies are counted under a microscope using the Image-Pro Plus software (v.4) program (Media Cybernetics, Silver Spring, Md.).
The effect of compound 1 in a pair of colon cancer cell lines, p53 wildtype (HCT116 p53^+/+) and p53-deficient (HCT116 p53^−/−) cells was also examined to determine whether the sensitivity of cells to compound 1 directly correlates with the status of p53 in cells.

[1] = system: A549 lung cancer cells xenograft; experiment: Xenograft mouse model, oral gavage (Example 7); type: in vivo; conditions: 40 mg/kg oral gavage 5 times a week
Description: Athymic nude mice (6 week old nu/nu female mice, Harlan Laboratory, Minneapolis, Minn.) were inoculated in the right flank with A549 lung cancer cells (3*10^6 cells/mouse). Mice were maintained under “specific pathogen-free” conditions based on the guidelines established by the University of Minnesota Institutional Animal Care and Use Committee. Tumors were allowed to grow to an average of ˜53.5±34.5 mm^3 and then mice were divided into 2 equal groups with a similar average tumor volume (group 1; n=15), vehicle only; (group 2, […]), compound 1 at 40 mg/kg. Treatment with vehicle or compound 1 was initiated on Day 13 after inoculation of cells and continued to Day 80 (˜9 wks) and was administered by oral gavage 5 times a week. Tumor volume was measured once a week and body weight was measured once a week. Compound 1 was prepared in 2.5% DMSO/5% PEG 400/5% Tween-80 in 1×PBS and sonicated for ˜20 minutes. […] Data are shown as means±S.E (FIG. 1).

[2] = system: A549 cells transfected with mock shRNA; experiment: Anchorage-independent growth, mock shRNA cells; type: cell-based; conditions: Homo sapiens
Protocol: as §1
The effect of knocking down Aurora B expression in A549 cancer cells on the cell's sensitivity to Compound 1 was evaluated. […] Compound 1 (0.5 μM) inhibited anchorage-independent growth of A549 cells transfected with mock shRNA by about 90%.

HCT116 cells = experiment: Anchorage-independent growth (soft agar colony formation); type: cell-based; conditions: 0.5 μM
Protocol: FIGS. 3A and 3B. Compounds 1-8 suppress the anchorage-independent growth of HCT116 cells. The asterisk indicates a significant (* p<0.05, ** p<0.01) decrease in colony formation in cells treated with each compound compared with the DMSO treated control group. Two concentrations of each compound, 0.5 μM and 5 μM were tested. […] Compounds 2 and 4 had no effect.
as §1

H520 cells = experiment: Apoptosis (Annexin V/PI staining); type: cell-based, human; conditions: H520, 5 μM, 72 hours
Protocol: (§2) Cells are plated in 60-mm plates and treated or not treated with Compound 1 for the indicated time. At each time point, cells are fixed in 70% ethanol and stored at −20° C. for 24 h. After staining, the cell cycle distribution or apoptosis is determined using a BD FACSCalibur Flow Cytometer (BD Biosciences, San Jose, Calif.). Aurora B inhibition leads to failure in cytokinesis and abnormal exit from mitosis, which could result in polyploidy cells, cell cycle arrest, and ultimately apoptosis. The ability to induce polyploidy cells was further examined in A549 cells treated or not treated with Compound 1. […] In addition, Compound 1 treatment for 48 hours caused an increase in the number of A549 and H520 cells occupying the G2/M phase. Moreover, exposure of these cells to Compound 1 for 72 hours induced apoptosis as measured by Annexin V/PI staining. For example, exposure to 5 μM Compound 1 induced 48% or 82% apoptosis in A549 cells and H520 cells, compared to 8% or 38% in untreated control cells, respectively.

A549 cells = experiment: Apoptosis (Annexin V/PI staining); type: cell-based, human; conditions: A549, 5 μM, 72 hours
Protocol: as §2

Aurora B, sequence (Q96GD4 whole entry): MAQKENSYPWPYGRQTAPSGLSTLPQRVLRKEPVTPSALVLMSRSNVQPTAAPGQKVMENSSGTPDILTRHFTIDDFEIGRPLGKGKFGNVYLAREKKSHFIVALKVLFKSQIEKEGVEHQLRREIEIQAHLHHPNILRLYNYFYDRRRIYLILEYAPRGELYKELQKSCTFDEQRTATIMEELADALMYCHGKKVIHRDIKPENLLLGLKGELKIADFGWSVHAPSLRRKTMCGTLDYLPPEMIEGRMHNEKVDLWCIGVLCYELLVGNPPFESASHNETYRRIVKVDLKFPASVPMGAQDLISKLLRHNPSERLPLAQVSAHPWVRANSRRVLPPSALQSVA

With `O=C(/C=C/c1ccc2c(c1)OCO2)/C=C1/C(=O)Nc2ccccc21` [Compound 1] the inhibition at 0.05 µM (Aurora B; 0.05 μM) was 22%, the inhibition at 0.1 µM (Aurora B; 0.1 μM) was 50% and the “histone H3 (Ser10) phosphorylation band by Aurora B” value (Aurora B; 1 μM) was “only a weak histone H (Ser10) band”. For the same molecule, the “concentration required for Aurora B inhibition” value (Aurora B; discussion statement) was ≤ 1 µM, the inhibition at 0.05 µM (HCT116 p53−/− cells; HCT-116, 0.05 μM) was 40% and the inhibition at 0.1 µM (HCT116 p53−/− cells; HCT-116, 0.1 μM) was > 95%. The “final tumor volume (mean±S.E.)” value ([1]; Day 13 to Day 80, vehicle 1004±140.1, in mm³ (unit assumed)) was 403.2±50.0, the toxicity in mice ([1]; ~9 wks) was “No toxicity” and the inhibition at 0.5 µM [2] was ~90%. For the same molecule, the “anchorage-independent growth of HCT116 cells (colony formation)” value (HCT116 cells) was “best efficiency”, the “apoptosis (Annexin V/PI staining)” value (H520 cells) was 82% and the “apoptosis (Annexin V/PI staining)” value (A549 cells) was 48%.
